Experimental data published in patent EP0488424B1, “Recombinant DNA sequences encoding feedback inhibition released enzymes, plasmids comprising the recombinant DNA sequences, transformed microorganisms useful in the production of aromatic amino acids, and a process for preparing aromatic amino acids by fermentation” (priority 1990, dated 1992).

Columns and labels:
Format in all cases: biochemical
[1] = biological target: T1, Escherichia coli 3-deoxy-D-arabinoheptulonic acid-7-phosphate synthase (DS) encoded by aroG, wild type (pTS-aroG) (Escherichia coli, UniProt P0AB91); assay: DS enzyme activity in the presence of L-phenylalanine (crude enzyme solution); conditions: crude enzyme of AB3257/pTS-aroG; concentration not stated in text (Fig. 3)
T1 construct: cloning the natural DS gene of Escherichia coli; made in house; host or cells: Escherichia coli AB3257 (no DS activity), crude enzyme solution
Excerpt: (§1) The above plasmids, bearing either mutant aroF (pTS-aroF15 and pTS-aroF33) or mutant aroG (pTS-aroG4, pTS-aroG8, pTS-aroG15, pTS-aroG17, pTS-aroG29 and pTS-aroG40), were used to transform Escherichia coli AB3257 strain having no DS activity. The respective transformants were named AJ 12598 (AB3257/pTS-aroF15), AJ 12599 (AB3257/pTS-aroF33), AJ 12562 (AB3257/pTS-aroG4), AJ 12600 (AB3257/pTS-aroG8), AJ 12563 (AB3257/pTS-aroG15), AJ 12601 (AB3257/pTS-aroG17), AJ 12602 (AB3257/pTS-aroG29) and AJ 12603 (AB3257/pTS-aroG40), respectively. Among them, AJ 12563 and AJ 12603 were deposited as representative strains in the Fermentation Research Institute of the Agency of Industrial Science & Technology of Japan, under the deposit numbers Escherichia coli FERM BP-3567 and FERM BP-3568, respectively. For the purpose of comparison, plasmids hearing wild type genes were also used to transform the E. coli AB3257 strain.
(§2) Each of these strains were cultured for 24 hours in a known L-phenylalanine-producing medium [Sugimoto, S. et al., J. Biotechnol., 5, 237 (1988)]. From the culture cells, the crude enzyme solution was prepared by ultrasonic homogenization. The enzyme activity of DS was determined in a conventional manner [Gollub, E. et al., Methods Enzymol., 17, 349], in the presence of L-tyrosine in the case of aroF, and in the presence of L-phenylalanine in the case of aroG.

[2] = biological target: T2, Escherichia coli DS encoded by aroG, variant aroG15, 146 Asp → Asn (pTS-aroG15) (Escherichia coli, UniProt P0AB91, D146N); assay: as above; conditions: crude enzyme of AJ 12563 (AB3257/pTS-aroG15); Fig. 3
T2 construct: cloning the natural DS gene of Escherichia coli; made in house; host or cells: Escherichia coli AB3257 (strain AJ 12563), crude enzyme solution
Excerpt: as §1, §2

[3] = biological target: T3, Escherichia coli DS encoded by aroG, variant aroG17, 147 Met → Ile, 332 Glu → Lys (pTS-aroG17) (Escherichia coli, UniProt P0AB91, E332K/M147I); assay: as above; conditions: crude enzyme of AJ 12601 (AB3257/pTS-aroG17); Fig. 3
T3 construct: cloning the natural DS gene of Escherichia coli; made in house; host or cells: Escherichia coli AB3257 (strain AJ 12601), crude enzyme solution
Excerpt: as §1, §2

[4] = biological target: T4, Escherichia coli DS encoded by aroG, variant aroG29, 147 Met → Ile (pTS-aroG29) (Escherichia coli, UniProt P0AB91, M147I); assay: as above; conditions: crude enzyme of AJ 12602 (AB3257/pTS-aroG29); Fig. 3
T4 construct: cloning the natural DS gene of Escherichia coli; made in house; host or cells: Escherichia coli AB3257 (strain AJ 12602), crude enzyme solution
Excerpt: as §1, §2

[5] = biological target: T5, Escherichia coli DS encoded by aroG, variant aroG4, 150 Pro → Leu (pTS-aroG4, strain AJ 12562) (Escherichia coli, UniProt P0AB91, P150L); assay: as above; conditions: crude enzyme of AJ 12562 (AB3257/pTS-aroG4); Fig. 3
T5 construct: cloning the natural DS gene of Escherichia coli; made in house; host or cells: Escherichia coli AB3257 (strain AJ 12562), crude enzyme solution
Excerpt: as §1, §2

[6] = biological target: T6, Escherichia coli DS encoded by aroG, variant aroG40, 157 Met → Ile, 219 Ala → Thr (pTS-aroG40) (Escherichia coli, UniProt P0AB91, A219T/M157I); assay: as above; conditions: crude enzyme of AJ 12603 (AB3257/pTS-aroG40); Fig. 3
T6 construct: cloning the natural DS gene of Escherichia coli; made in house; host or cells: Escherichia coli AB3257 (strain AJ 12603), crude enzyme solution
Excerpt: as §1, §2

[7] = biological target: T7, Escherichia coli DS encoded by aroG, variant aroG8, 202 Ala → Thr (pTS-aroG8) (Escherichia coli, UniProt P0AB91, A202T); assay: as above; conditions: crude enzyme of AJ 12600 (AB3257/pTS-aroG8); Fig. 3
T7 construct: cloning the natural DS gene of Escherichia coli; made in house; host or cells: Escherichia coli AB3257 (strain AJ 12600), crude enzyme solution
Excerpt: as §1, §2

[8] = biological target: T8, Escherichia coli K-12 chorismate mutase-prephenate dehydratase (CM-PD), variant with 330 serine residue substituted with a proline residue (pPHAB) (Escherichia coli, UniProt P0A9J8, S330P); assay: PD enzyme activity in the presence of L-phenylalanine (crude enzyme); conditions: 5 mM L-phenylalanine; 1 mM barium prephenate, 0.5 mM L-tyrosine, pH 8.2, 37°C, 10 minutes; Fig. 4
T8 construct: the natural CM-PD gene of Escherichia coli is cloned; made in house; host or cells: Escherichia coli K-12 W3110 (tyrA), crude enzyme solution
Experimental: (§3) Escherichia coli K-12 W3110 (tyrA)/(pPHAB) strain was cultured at 37°C for 15 hours in L medium and the cells were collected by centrifugation. Then, the cells were washed twice with physiological saline, and suspended in 250 mM Tris-hydrochloride buffer (pH 7.5) containing 0.5 mM dithiothreitol under ice cooling. By ultrasonication (20 KHz) for 30 seconds four times, the crude enzyme solution was prepared.
(§4) The PD enzyme activity was determined in a conventional manner [Cotton, R.G.H. and Gibson, F., Meth. in Enzymol., 17, 564 (1970)]. Using the crude enzyme, the enzymatic reaction was carried out at 37°C for 10 minutes in the presence of 50 mM Tris-hydrochloride buffer (pH 8.2) containing 1 mM barium prephenate and 0.5 mM L-tyrosine. Aqueous sodium hydroxide (1 N) was added to terminate the reaction, and the formed phenylpyruvic acid was measured at an extinction wavelength of 320 nm.
(§5) Quantitative determination of protein was made using the Protein Assay Kit (manufactured by Bio Rad Co.), according to the protocol of the manufacturer.

[9] = biological target: T9, Escherichia coli chorismate mutase-prephenate dehydratase (CM-PD), wild type (Escherichia coli, UniProt P0A9J8); assay: as above; conditions: 0.5 mM L-phenylalanine; 1 mM barium prephenate, 0.5 mM L-tyrosine, pH 8.2, 37°C, 10 minutes; Fig. 4
T9 construct: the natural CM-PD gene of Escherichia coli is cloned; made in house
Experimental: as §3, §4, §5

[10] = biological target: T10, Escherichia coli K-12 chorismate mutase-prephenate dehydratase (CM-PD), variant with 330 serine residue substituted with an aspartic acid (pPHAD) (Escherichia coli, UniProt P0A9J8, S330D); assay: as above; conditions: crude enzyme of W3110 (tyrA)/(pPHAD); concentration not given
T10 construct: the natural CM-PD gene of Escherichia coli is cloned; made in house; host or cells: Escherichia coli W3110 (tyrA), crude enzyme
Experimental: as §3, §4, §5
(§6) By using the same method above, the PD enzyme activities of Escherichia coli W3110 (tyrA)/(pPHAD) and Escherichia coli W3110 (tyrA)/(pPHATerm) were determined.

[11] = biological target: T11, Escherichia coli K-12 chorismate mutase-prephenate dehydratase (CM-PD), variant with amino acid residues downstream from the 330 serine residue deleted (pPHATer (Escherichia coli, UniProt P0A9J8)); assay: as above; conditions: crude enzyme of W3110 (tyrA)/(pPHATerm); concentration not given
T11 construct: made in house; host or cells: Escherichia coli W3110 (tyrA), crude enzyme
Experimental: as §3, §4, §5, §6

[12] = biological target: T12, Escherichia coli 3-deoxy-D-arabinoheptulonic acid-7-phosphate synthase (DS) encoded by aroF, wild type (pTS-aroF) (Escherichia coli, UniProt P00888); assay: DS enzyme activity in the presence of L-tyrosine (crude enzyme solution); conditions: crude enzyme of AB3257/pTS-aroF; concentration not stated in text (Fig. 2)
T12 construct: cloning the natural DS gene of Escherichia coli; made in house; host or cells: Escherichia coli AB3257 (aroF, aroG, aroH deleted), crude enzyme solution
Excerpt: as §1, §2

[13] = biological target: T13, Escherichia coli DS encoded by aroF, variant aroF15, 147 Asp → Asn (pTS-aroF15) (Escherichia coli, UniProt P00888, D147N); assay: as above; conditions: crude enzyme of AJ 12598 (AB3257/pTS-aroF15); concentration not stated in text (Fig. 2)
T13 construct: cloning the natural DS gene of Escherichia coli; made in house; host or cells: Escherichia coli AB3257 (strain AJ 12598), crude enzyme solution
Excerpt: as §1, §2

[14] = biological target: T14, Escherichia coli DS encoded by aroF, variant aroF33, 181 Ser → Phe (pTS-aroF33) (Escherichia coli, UniProt P00888, S181F); assay: as above; conditions: crude enzyme of AJ 12599 (AB3257/pTS-aroF33); concentration not stated in text (Fig. 2)
T14 construct: cloning the natural DS gene of Escherichia coli; made in house; host or cells: Escherichia coli AB3257 (strain AJ 12599), crude enzyme solution
Excerpt: as §1, §2

Structure (SMILES) | inhibition by L-phenylalanine of DS enzyme activity [1] | inhibition by L-phenylalanine of DS enzyme activity [2] | inhibition by L-phenylalanine of DS enzyme activity [3] | inhibition by L-phenylalanine of DS enzyme activity [4] | DS enzyme activity as a function of L-phenylalanine concentration [5] | inhibition by L-phenylalanine of DS enzyme activity [5] | inhibition by L-phenylalanine of DS enzyme activity [6] | inhibition by L-phenylalanine of DS enzyme activity [7] | inhibition by L-phenylalanine of prephenate dehydratase activity [8] | inhibition by L-phenylalanine of prephenate dehydratase activity [9] | feedback inhibition by L-phenylalanine of PD enzyme activity [10] | feedback inhibition by L-phenylalanine of PD enzyme activity [11] | inhibition by L-tyrosine of DS enzyme activity [12] | inhibition by L-tyrosine of DS enzyme activity [13] | inhibition by L-tyrosine of DS enzyme activity [14]
N[C@@H](Cc1ccccc1)C(=O)O [L-phenylalanine] | strongly inhibited | feedback inhibition by L-phenylalanine is released | feedback inhibition by L-phenylalanine is released | feedback inhibition by L-phenylalanine is released | increases as the concentration of L-phenylalanine increases | releases feedback inhibition | feedback inhibition by L-phenylalanine is released | feedback inhibition by L-phenylalanine is released | almost no inhibition | strongly inhibited | released from feedback inhibition | released from feedback inhibition | – | – | –
N[C@@H](Cc1ccc(O)cc1)C(=O)O [L-tyrosine] | – | – | – | – | – | – | – | – | – | – | – | – | strongly inhibited | released from feedback inhibition | released from feedback inhibition
